PubChem BioAssay (NCI)
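Briefly, cells in 96-well plates were exposed to five compound concentrations for 48 h, and endpoints were estimated by linear interpolation. Abbreviation: GI50, concentration required for 50% inhibition of growth. TGI is the concentration that stops growth completely.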

Assays:
Assay in all cases: NCI tumour cell line growth inhibition, 48 h
NCI-H522 lung = system: NCI-H522 lung
KM12 colon = system: KM12 colon
HCT-116 colon = system: HCT-116 colon
CAKI-1 renal = system: CAKI-1 renal
SK-MEL-28 melanoma = system: SK-MEL-28 melanoma
HT29 colon = system: HT29 colon
UO-31 renal = system: UO-31 renal
SNB-75 CNS = system: SNB-75 CNS
LOX IMVI melanoma = system: LOX IMVI melanoma
NCI-H460 lung = system: NCI-H460 lung
NCI/ADR-RES ovarian = system: NCI/ADR-RES ovarian
OVCAR-4 ovarian = system: OVCAR-4 ovarian
OVCAR-5 ovarian = system: OVCAR-5 ovarian
RXF 393 renal = system: RXF 393 renal
ACHN renal = system: ACHN renal
786-0 renal = system: 786-0 renal
SF-268 CNS = system: SF-268 CNS
SF-539 CNS = system: SF-539 CNS
COLO 205 colon = system: COLO 205 colon
OVCAR-3 ovarian = system: OVCAR-3 ovarian
HCT-15 colon = system: HCT-15 colon
TK-10 renal = system: TK-10 renal
EKVX NSCLC = system: EKVX NSCLC
SK-MEL-2 melanoma = system: SK-MEL-2 melanoma
MOLT-4 leukemia = system: MOLT-4 leukemia
SNB-19 CNS = system: SNB-19 CNS
UACC-257 melanoma = system: UACC-257 melanoma
HCC-2998 colon = system: HCC-2998 colon
BT-549 breast = system: BT-549 breast
PC-3 prostate = system: PC-3 prostate
NCI-H23 lung = system: NCI-H23 lung
A549 NSCLC = system: A549 NSCLC
HS 578T breast = system: HS 578T breast
M14 melanoma = system: M14 melanoma
RPMI-8226 leukemia = system: RPMI-8226 leukemia
SK-MEL-5 melanoma = system: SK-MEL-5 melanoma
U251 CNS = system: U251 CNS
UACC-62 melanoma = system: UACC-62 melanoma
IGROV1 ovarian = system: IGROV1 ovarian
SK-OV-3 ovarian = system: SK-OV-3 ovarian
OVCAR-8 ovarian = system: OVCAR-8 ovarian
DU-145 prostate = system: DU-145 prostate
A498 renal = system: A498 renal
MALME-3M melanoma = system: MALME-3M melanoma
HL-60(TB) leukemia = system: HL-60(TB) leukemia
MDA-MB-435 = system: MDA-MB-435
T-47D breast = system: T-47D breast
SN12C renal = system: SN12C renal
K-562 leukemia = system: K-562 leukemia
MDA-MB-231 breast = system: MDA-MB-231 breast
SF-295 CNS = system: SF-295 CNS
HOP-62 NSCLC = system: HOP-62 NSCLC
SW-620 colon = system: SW-620 colon
MCF7 breast = system: MCF7 breast
HOP-92 NSCLC = system: HOP-92 NSCLC
SR leukemia = system: SR leukemia
CCRF-CEM leukemia = system: CCRF-CEM leukemia

Cc1oc2nc[nH]c(=O)c2c1C(=O)/C=C/c1ccc(Br)cc1
GI50 (NCI-H522 lung): 1.89 µM
TGI (NCI-H522 lung): 5.76 µM
GI50 (KM12 colon): 1.51 µM
TGI (KM12 colon): 3.44 µM
GI50 (HCT-116 colon): 1.26 µM
TGI (HCT-116 colon): 2.82 µM
GI50 (CAKI-1 renal): 1.34 µM
TGI (CAKI-1 renal): 11.5 µM
GI50 (SK-MEL-28 melanoma): 2.39 µM
TGI (SK-MEL-28 melanoma): 8.3 µM
GI50 (HT29 colon): 2.36 µM
TGI (HT29 colon): 6.3 µM
GI50 (UO-31 renal): 0.781 µM
TGI (UO-31 renal): 7.39 µM
GI50 (SNB-75 CNS): 1.23 µM
TGI (SNB-75 CNS): 9.62 µM
GI50 (LOX IMVI melanoma): 1.03 µM
TGI (LOX IMVI melanoma): 2.43 µM
GI50 (NCI-H460 lung): 3.25 µM
TGI (NCI-H460 lung): 11 µM
GI50 (NCI/ADR-RES ovarian): 1.84 µM
TGI (NCI/ADR-RES ovarian): 20.8 µM
GI50 (OVCAR-4 ovarian): 2.51 µM
TGI (OVCAR-4 ovarian): 13.1 µM
GI50 (OVCAR-5 ovarian): 2.93 µM
TGI (OVCAR-5 ovarian): 9.32 µM
GI50 (RXF 393 renal): 1.41 µM
TGI (RXF 393 renal): 3.22 µM
GI50 (ACHN renal): 1.6 µM
TGI (ACHN renal): 5.61 µM
GI50 (786-0 renal): 1.8 µM
TGI (786-0 renal): 3.97 µM
GI50 (SF-268 CNS): 3.08 µM
TGI (SF-268 CNS): 17.5 µM
GI50 (SF-539 CNS): 1.73 µM
TGI (SF-539 CNS): 4.64 µM
GI50 (COLO 205 colon): 1.7 µM
TGI (COLO 205 colon): 5.5 µM
GI50 (OVCAR-3 ovarian): 1.85 µM
TGI (OVCAR-3 ovarian): 5.74 µM
GI50 (HCT-15 colon): 1.09 µM
TGI (HCT-15 colon): 4.96 µM
GI50 (TK-10 renal): 4.46 µM
TGI (TK-10 renal): 13.3 µM
GI50 (EKVX NSCLC): 2.37 µM
TGI (EKVX NSCLC): 12.8 µM
GI50 (SK-MEL-2 melanoma): 2.34 µM
TGI (SK-MEL-2 melanoma): 7.1 µM
GI50 (MOLT-4 leukemia): 2.84 µM
TGI (MOLT-4 leukemia): 17.9 µM
GI50 (SNB-19 CNS): 1.8 µM
TGI (SNB-19 CNS): 5.44 µM
GI50 (UACC-257 melanoma): 2.37 µM
TGI (UACC-257 melanoma): 11.3 µM
GI50 (HCC-2998 colon): 1.7 µM
TGI (HCC-2998 colon): 3.26 µM
GI50 (BT-549 breast): 1.74 µM
TGI (BT-549 breast): 4.13 µM
GI50 (PC-3 prostate): 2.36 µM
TGI (PC-3 prostate): 15.6 µM
GI50 (NCI-H23 lung): 2.07 µM
TGI (NCI-H23 lung): 7.82 µM
GI50 (A549 NSCLC): 2.73 µM
TGI (A549 NSCLC): 14.2 µM
GI50 (HS 578T breast): 3.49 µM
TGI (HS 578T breast): 38.9 µM
GI50 (M14 melanoma): 2.14 µM
TGI (M14 melanoma): 8.53 µM
GI50 (RPMI-8226 leukemia): 1.36 µM
TGI (RPMI-8226 leukemia): 6.91 µM
GI50 (SK-MEL-5 melanoma): 1.56 µM
TGI (SK-MEL-5 melanoma): 3.27 µM
GI50 (U251 CNS): 1.44 µM
TGI (U251 CNS): 3.17 µM
GI50 (UACC-62 melanoma): 1.33 µM
TGI (UACC-62 melanoma): 3.03 µM
GI50 (IGROV1 ovarian): 1.81 µM
TGI (IGROV1 ovarian): 10.2 µM
GI50 (SK-OV-3 ovarian): 4.08 µM
TGI (SK-OV-3 ovarian): 15.5 µM
GI50 (OVCAR-8 ovarian): 2.08 µM
TGI (OVCAR-8 ovarian): 88.3 µM
GI50 (DU-145 prostate): 2.03 µM
TGI (DU-145 prostate): 7.85 µM
GI50 (A498 renal): 2.46 µM
TGI (A498 renal): 6.82 µM
GI50 (MALME-3M melanoma): 1.89 µM
TGI (MALME-3M melanoma): 6 µM
GI50 (HL-60(TB) leukemia): 2.32 µM
TGI (HL-60(TB) leukemia): 10.3 µM
GI50 (MDA-MB-435): 2 µM
TGI (MDA-MB-435): 6.69 µM
GI50 (T-47D breast): 1.86 µM
TGI (T-47D breast): 14.2 µM
GI50 (SN12C renal): 2.95 µM
TGI (SN12C renal): 11.9 µM
GI50 (K-562 leukemia): 0.798 µM
TGI (K-562 leukemia): > 100 µM
GI50 (MDA-MB-231 breast): 3.47 µM
TGI (MDA-MB-231 breast): 17.8 µM
GI50 (SF-295 CNS): 4.22 µM
TGI (SF-295 CNS): 15 µM
GI50 (HOP-62 NSCLC): 2.62 µM
TGI (HOP-62 NSCLC): 9.73 µM
GI50 (SW-620 colon): 2.16 µM
TGI (SW-620 colon): 7.09 µM
GI50 (MCF7 breast): 0.505 µM
TGI (MCF7 breast): 11.5 µM
GI50 (HOP-92 NSCLC): 1.35 µM
TGI (HOP-92 NSCLC): 6.86 µM
GI50 (SR leukemia): 1.35 µM
TGI (SR leukemia): 16.3 µM
GI50 (CCRF-CEM leukemia): 1.01 µM
TGI (CCRF-CEM leukemia): 30.6 µM
